From patent publication US20150366890A1, “COMPOSITIONS AND METHODS FOR TREATING FUNGAL INFECTIONS” (TRUSTEES OF BOSTON UNIVERSITY, priority 2013, published 2015)
Like-named read-outs stand apart in the source and are kept apart here.

Experiments:
Assay type in all cases: cell-based
[1] = system: S. cerevisiae single-deletion yeast strains; assay: High-throughput 96-well screen of AF sensitivity of single-gene knockouts (CFU at start and after 8 hours)
Method: To identify genes critical to AF action, the AF sensitivity of single-gene knockouts identified through the common transcriptional analysis were identified. In the first pass-through, 56 testable genes were identified. This set was later expanded to include targets identified through phenotypic analysis and metabolomic profiling, for a total of 84 target genes (Table 2). The initial 56 targets were tested using a rapid high-throughput 96-well assay with AMB and MCZ to identify single-gene knockouts with elevated resistance to AFs (Table 2). Knockouts that were more resistant to at least one of the AFs were tested individually using the 24-well colony forming (CF) assay. Target genes selected after the initial 56 strains were assayed individually using the 24-well CF assay.
The first 56 S. cerevisiae strains were acquired from the deletion library and stored in 96-well plates in replicates of three. To start the assay, the plates were defrosted and 10 μl of stored cells were inoculated into 100 μl of fresh synthetic dextrose complete (SDC) media for 16 hours. These overnight cultures were diluted into a fresh 96-well plate with 100 μl of SDC to achieve an OD600 of approximately 0.2. Colony forming units (CFU) in each well were measured at the start of the assay and after 8 hours of incubation. The AF susceptibility of each strain was compared to that of wildtype. Strains with significant susceptibility differences from wildtype were assayed in 0.5 ml of SDC media using the 24-well plate CF assay described above.

[2] = system: S. cerevisiae wildtype and deletion strains
S. cerevisiae = assay: Mitochondrial activity by MitoTracker Red fluorescence; details: drug added to glucose-incubated (SC, 2% glucose) S. cerevisiae
Method: It was next sought to assess the mitochondrial activity of AF-treated fungal cells. Yhe MitoTracker Red dye, which enters the mitochondrial matrix by utilizing the proton motive force and thus labels metabolically active mitochondria in viable cells was used (Arita et al., 2006; Tomas et al., 2011). Exponential phase S. cerevisiae were incubated in glucose-free synthetic complete (SC) media for 30 min and then switched to SC containing 2% glucose or non-fermentable acetate for 1.5 hours.
(§1) Overnight yeast cultures were diluted into the indicated media and grown to an OD600 of 0.2, at which point the AFs were added. Colony forming units (CFU) were measured by plating six serial dilutions onto YPD agar plates. Cells treated with MCZ were washed before serial dilution to stop growth inhibition associated with high concentrations of MCZ. CFU were counted after three days of incubation on agar plates. When indicated, thiourea (Fluka) was added 30 min prior to the addition of AFs. HPF (10 μM) (Invitrogen) and Mito Tracker (1 μM) (Invitrogen) dyes were added to PBS-washed cells at the indicated time points and incubated for 30 min prior to flow cytometry measurements, which were taken on the FACSCalibur (Becton-Dickinson). All experiments described in this section were conducted in 0.5 ml of SDC in 24-well plates incubated at 900 rpm and 37° C. for C. albicans and 30° C. and 300 rpm for S. cerevisiae. TUNEL assays were conducted as previously described (Ribeiro et al., 2006) and are described in detail in the TUNEL section of the Experimental Procedures.

[3] = system: C. albicans wildtype and DNA repair mutants; assay: Fungicidal killing, CFU assay; details: C. albicans rad50/rad50 and rad52/rad52, 3 hours of drug exposure
Method: Overnight yeast cultures were diluted into the indicated media and grown to an OD600 of 0.2, at which point the AFs were added. Colony forming units (CFU) were measured by plating six serial dilutions onto YPD agar plates.
as §1

[4] = S. cerevisiae PAB103, SDH2 deletion
[5] = S. cerevisiae PAB107, NDE1 deletion
[6] = S. cerevisiae PAB112, MNE1 deletion
[7] = S. cerevisiae PAB113, FUM1 deletion
[8] = S. cerevisiae PAB114, TPK2 deletion
[9] = S. cerevisiae PAB119, CIT2 deletion
[10] = S. cerevisiae PAB121, SDH1 deletion
[11] = S. cerevisiae PAB122, TPK3 deletion
[12] = S. cerevisiae PAB124, TPK1 deletion
[13] = S. cerevisiae PAB132, CIT3 deletion
[14] = S. cerevisiae PAB135, NDI1 deletion
[15] = S. cerevisiae PAB145, CIT1 deletion

Clc1ccc(COC(Cn2ccnc2)c2ccc(Cl)cc2Cl)c(Cl)c1 (stereo not drawn) [MCZ, miconazole]
96 Well Screen, AF susceptibility vs wildtype ([1]; S. cerevisiae PAB101, WT): Normal
96 Well Screen, AF susceptibility vs wildtype ([1]; S. cerevisiae PAB102, HSP104 deletion): Normal
96 Well Screen, AF susceptibility vs wildtype [1, 4]: Resistant (″Resistant″ or ″Sensitive″ indicate at least a 5-fold CFU difference from wildtype at the final time point)
96 Well Screen, AF susceptibility vs wildtype ([1]; S. cerevisiae PAB104, FRE8 deletion): Normal
96 Well Screen, AF susceptibility vs wildtype ([1]; S. cerevisiae PAB105, CHA4 deletion): Normal
96 Well Screen, AF susceptibility vs wildtype ([1]; S. cerevisiae PAB106, FMS1 deletion): Normal
96 Well Screen, AF susceptibility vs wildtype [1, 5]: Resistant (″Resistant″ or ″Sensitive″ indicate at least a 5-fold CFU difference from wildtype at the final time point)
96 Well Screen, AF susceptibility vs wildtype ([1]; S. cerevisiae PAB108, ALD3 deletion): Normal
96 Well Screen, AF susceptibility vs wildtype ([1]; S. cerevisiae PAB109, GAD1 deletion): Normal
96 Well Screen, AF susceptibility vs wildtype ([1]; S. cerevisiae PAB110, PGM3 deletion): Normal
96 Well Screen, AF susceptibility vs wildtype ([1]; S. cerevisiae PAB111, PYK2 deletion): Resistant (″Resistant″ or ″Sensitive″ indicate at least a 5-fold CFU difference from wildtype at the final time point)
96 Well Screen, AF susceptibility vs wildtype [1, 6]: Normal
96 Well Screen, AF susceptibility vs wildtype [1, 7]: Resistant (″Resistant″ or ″Sensitive″ indicate at least a 5-fold CFU difference from wildtype at the final time point)
96 Well Screen, AF susceptibility vs wildtype [1, 8]: Normal
96 Well Screen, AF susceptibility vs wildtype ([1]; S. cerevisiae PAB115, ATG29 deletion): Normal
96 Well Screen, AF susceptibility vs wildtype ([1]; S. cerevisiae PAB116, ISU1 deletion): Normal
96 Well Screen, AF susceptibility vs wildtype ([1]; S. cerevisiae PAB117, CYC7 deletion): Normal
96 Well Screen, AF susceptibility vs wildtype ([1]; S. cerevisiae PAB118, ARN1 deletion): Normal
96 Well Screen, AF susceptibility vs wildtype [1, 9]: Resistant (″Resistant″ or ″Sensitive″ indicate at least a 5-fold CFU difference from wildtype at the final time point)
96 Well Screen, AF susceptibility vs wildtype ([1]; S. cerevisiae PAB120, HSP30 deletion): Resistant (″Resistant″ or ″Sensitive″ indicate at least a 5-fold CFU difference from wildtype at the final time point)
96 Well Screen, AF susceptibility vs wildtype [1, 10]: Resistant (″Resistant″ or ″Sensitive″ indicate at least a 5-fold CFU difference from wildtype at the final time point)
96 Well Screen, AF susceptibility vs wildtype [1, 11]: Resistant (″Resistant″ or ″Sensitive″ indicate at least a 5-fold CFU difference from wildtype at the final time point)
96 Well Screen, AF susceptibility vs wildtype ([1]; S. cerevisiae PAB123, ISU2 deletion): Normal
96 Well Screen, AF susceptibility vs wildtype [1, 12]: Normal
96 Well Screen, AF susceptibility vs wildtype ([1]; S. cerevisiae PAB125, MID2 deletion): Normal
96 Well Screen, AF susceptibility vs wildtype ([1]; S. cerevisiae PAB126, SSK1 deletion): Normal
96 Well Screen, AF susceptibility vs wildtype ([1]; S. cerevisiae PAB127, HSP42 deletion): Normal
96 Well Screen, AF susceptibility vs wildtype ([1]; S. cerevisiae PAB128, PIG1 deletion): Normal
96 Well Screen, AF susceptibility vs wildtype ([1]; S. cerevisiae PAB130, UGA1 deletion): Normal
96 Well Screen, AF susceptibility vs wildtype ([1]; S. cerevisiae PAB131, MTL1 deletion): Normal
96 Well Screen, AF susceptibility vs wildtype [1, 13]: Resistant (″Resistant″ or ″Sensitive″ indicate at least a 5-fold CFU difference from wildtype at the final time point)
96 Well Screen, AF susceptibility vs wildtype ([1]; S. cerevisiae PAB133, ZWF1 deletion): Normal
96 Well Screen, AF susceptibility vs wildtype ([1]; S. cerevisiae PAB134, SUM1 deletion): Normal
96 Well Screen, AF susceptibility vs wildtype [1, 14]: Normal
96 Well Screen, AF susceptibility vs wildtype ([1]; S. cerevisiae PAB136, PGM2 deletion): Resistant (″Resistant″ or ″Sensitive″ indicate at least a 5-fold CFU difference from wildtype at the final time point)
96 Well Screen, AF susceptibility vs wildtype ([1]; S. cerevisiae PAB137, HFD1 deletion): Normal
96 Well Screen, AF susceptibility vs wildtype ([1]; S. cerevisiae PAB138, PUF2 deletion): Normal
96 Well Screen, AF susceptibility vs wildtype ([1]; S. cerevisiae PAB139, TDH1 deletion): Normal
96 Well Screen, AF susceptibility vs wildtype ([1]; S. cerevisiae PAB140, GUD1 deletion): Sensitive (″Resistant″ or ″Sensitive″ indicate at least a 5-fold CFU difference from wildtype at the final time point)
96 Well Screen, AF susceptibility vs wildtype ([1]; S. cerevisiae PAB141, ATG15 deletion): Normal
96 Well Screen, AF susceptibility vs wildtype ([1]; S. cerevisiae PAB142, TDH2 deletion): Normal
96 Well Screen, AF susceptibility vs wildtype ([1]; S. cerevisiae PAB143, ATP1 deletion): Normal
96 Well Screen, AF susceptibility vs wildtype ([1]; S. cerevisiae PAB144, UGA2 deletion): Normal
96 Well Screen, AF susceptibility vs wildtype [1, 15]: Resistant (″Resistant″ or ″Sensitive″ indicate at least a 5-fold CFU difference from wildtype at the final time point)
96 Well Screen, AF susceptibility vs wildtype ([1]; S. cerevisiae PAB146, SOLI deletion): Normal
96 Well Screen, AF susceptibility vs wildtype ([1]; S. cerevisiae PAB147, PAN6 deletion): Normal
96 Well Screen, AF susceptibility vs wildtype ([1]; S. cerevisiae PAB148, SOL4 deletion): Normal
96 Well Screen, AF susceptibility vs wildtype ([1]; S. cerevisiae PAB149, YAK1 deletion): Sensitive (″Resistant″ or ″Sensitive″ indicate at least a 5-fold CFU difference from wildtype at the final time point)
96 Well Screen, AF susceptibility vs wildtype ([1]; S. cerevisiae PAB150, PBS2 deletion): Sensitive (″Resistant″ or ″Sensitive″ indicate at least a 5-fold CFU difference from wildtype at the final time point)
96 Well Screen, AF susceptibility vs wildtype ([1]; S. cerevisiae PAB152, GPD1 deletion): Sensitive (″Resistant″ or ″Sensitive″ indicate at least a 5-fold CFU difference from wildtype at the final time point)
96 Well Screen, AF susceptibility vs wildtype ([1]; S. cerevisiae PAB153, SHO1 deletion): Sensitive (″Resistant″ or ″Sensitive″ indicate at least a 5-fold CFU difference from wildtype at the final time point)
96 Well Screen, AF susceptibility vs wildtype ([1]; S. cerevisiae PAB154, FET3 deletion): Sensitive (″Resistant″ or ″Sensitive″ indicate at least a 5-fold CFU difference from wildtype at the final time point)
96 Well Screen, AF susceptibility vs wildtype ([1]; S. cerevisiae PAB155, FBP1 deletion): Sensitive (″Resistant″ or ″Sensitive″ indicate at least a 5-fold CFU difference from wildtype at the final time point)
96 Well Screen, AF susceptibility vs wildtype ([1]; S. cerevisiae PAB156, COX6 deletion): Sensitive (″Resistant″ or ″Sensitive″ indicate at least a 5-fold CFU difference from wildtype at the final time point)
additive resistance on deleting the remaining citrate synthases in the cit3 background ([2]; S. cerevisiae CIT1/CIT2 deletions in cit3 background): not observed
CFU (24-well colony forming assay), AF susceptibility vs wildtype [2, 4]: Resistant (″Resistant″ or ″Sensitive″ indicate at least a 5-fold CFU difference from wildtype at the final time point)
CFU (24-well colony forming assay), AF susceptibility vs wildtype [2, 5]: Resistant (″Resistant″ or ″Sensitive″ indicate at least a 5-fold CFU difference from wildtype at the final time point)
CFU (24-well colony forming assay), AF susceptibility vs wildtype [2, 6]: Resistant (″Resistant″ or ″Sensitive″ indicate at least a 5-fold CFU difference from wildtype at the final time point)
CFU (24-well colony forming assay), AF susceptibility vs wildtype [2, 7]: Resistant (″Resistant″ or ″Sensitive″ indicate at least a 5-fold CFU difference from wildtype at the final time point)
CFU (24-well colony forming assay), AF susceptibility vs wildtype [2, 8]: Resistant (″Resistant″ or ″Sensitive″ indicate at least a 5-fold CFU difference from wildtype at the final time point)
CFU (24-well colony forming assay), AF susceptibility vs wildtype [2, 9]: Resistant (″Resistant″ or ″Sensitive″ indicate at least a 5-fold CFU difference from wildtype at the final time point)
CFU (24-well colony forming assay), AF susceptibility vs wildtype [2, 10]: Resistant (″Resistant″ or ″Sensitive″ indicate at least a 5-fold CFU difference from wildtype at the final time point)
CFU (24-well colony forming assay), AF susceptibility vs wildtype [2, 11]: Resistant (″Resistant″ or ″Sensitive″ indicate at least a 5-fold CFU difference from wildtype at the final time point)
CFU (24-well colony forming assay), AF susceptibility vs wildtype [2, 12]: Resistant (″Resistant″ or ″Sensitive″ indicate at least a 5-fold CFU difference from wildtype at the final time point)
CFU (24-well colony forming assay), AF susceptibility vs wildtype [2, 13]: Resistant (″Resistant″ or ″Sensitive″ indicate at least a 5-fold CFU difference from wildtype at the final time point)
CFU (24-well colony forming assay), AF susceptibility vs wildtype [2, 14]: Resistant (″Resistant″ or ″Sensitive″ indicate at least a 5-fold CFU difference from wildtype at the final time point)
CFU (24-well colony forming assay), AF susceptibility vs wildtype [2, 15]: Resistant (″Resistant″ or ″Sensitive″ indicate at least a 5-fold CFU difference from wildtype at the final time point)
CFU (24-well colony forming assay), AF susceptibility vs wildtype ([2]; S. cerevisiae PAB168, RAS1 deletion): Resistant (″Resistant″ or ″Sensitive″ indicate at least a 5-fold CFU difference from wildtype at the final time point)
CFU (24-well colony forming assay), AF susceptibility vs wildtype ([2]; S. cerevisiae PAB171, RAS2 deletion): Resistant (″Resistant″ or ″Sensitive″ indicate at least a 5-fold CFU difference from wildtype at the final time point)
reduction of killing at 3 hours by thiourea ([2]; S. cerevisiae, 50 mM thiourea for 30 minutes prior to the addition of AF drugs): ~10 fold
increase of MitoTracker fluorescence (S. cerevisiae): 70 fold
susceptibility of DSBR mutants compared to wildtype [3]: particularly susceptible
